In data set [1] the test system is corneal neovascularisation. Kind of data set: Mouse corneal vascularisation model (cornea scratched and infected with Pseudomonas aeruginosa 6294). It is filed as in vivo, BALB/c mice. The conditions noted are these: for vascularisation of the cornea compared to Groups 1 and 2 (photomicrographs): Group 3, 200 μmol/10 μL topical; for Percentage of animals showing vascularisation in the infected eye / animals showing vascularisation in the infected eye (number/total): 12-MTA 200 μmol/10 μL topical, every second day from day 4; for corneal neovascularisation in mice (in words): mouse, in vivo. From the text:
To induce neovascularisation in the cornea of mice, cornea were scratched and infected with Pseudomonas aeruginosa as essentially described in Cole, N., Willcox, M. D. P., Fleiszig, S. M. J., Stapleton, F., Bao, S., Tout, S., Husband, A. J. (1998) “Different strains of Pseudomonas aeruginosa isolated from ocular infections or inflammation display distinct corneal pathologies in an animal model.” Curr. Eye Res., 17:730-735.
Briefly, stock cultures of P. aeruginosa 6294 stored in 30% glycerol at −70° C. were inoculated into 10 mL of tryptone soya broth (Oxoid Ltd, Sydney, Australia). Cultures were prepared as previously described (Cole et al. (1998) Curr. Eye Res. 17:730-735) and suspended in phosphate buffered saline (PBS) to a concentration of 4×10^8 cfu (colony forming units)/ml. Bacterial concentration was adjusted turbidimetrically and the dose confirmed retrospectively by viable counts.
Inbred 6-8 week old BALB/c mice were anaesthetised with Averin (125 mg/kg, intraperitoneally) and the corneal surfaces of the eyes were incised with a sterile 27 gauge needle. 5 μL of the bacterial suspension (2.0×10^6 cfu) of strain 6294 was pipetted directly onto the wounded cornea of the left eye only. The right eye of each animal served as a control and was scratched but not infected. A minimum of eight mice per treatment group were used.
12-MTA at 200 μmol/10 μL was prepared as an emulsion in unpreserved paraffin and lanolin ophthalmic ointment base (Polyvisc, Alcon, Belgium) for topical application. Animals were divided into three treatment groups: Group 1 received no treatment; Group 2 received 10 μL of vehicle topically to the cornea per treatment to both the challenged and scratch control eye; and Group 3 received 10 μL of the 12-MTA as described above to both the challenged and scratch control eyes. The treatment schedule was begun four days after challenge and then every second day until the termination of the experiment 14 days post-challenge.
Mice were examined prior to bacterial challenge, immediately subsequent to bacterial challenge and 7 and 14 days post-challenge by a masked observer. The animals were anaesthetised for examination as described above and the corneas were examined at 48× magnification under white light using an FS2 photo slit-lamp biomicroscope (Topcon Corporation, Tokyo, Japan). At 7 and 14 days post-challenge, following the white light examination, 1% sodium fluorescein was instilled and the corneas viewed under UV light. Grades of severity of corneal damage were made and measurement of the extent and incursion of vessels into the central cornea were made.
Measurements were examined for significance using non-parametric Kruskal-Wallis and Mann Whitney U analysis.
For histological examination of corneas, mice were sacrificed at 14 days post-challenge. The eyes were immediately enucleated, fixed in neutral buffered formalin and embedded in paraffin. […] sections were cut and stained with haematoxylin and eosin for histopathological examination.

A short description of another data set: Aqueous solubility. It is filed as physicochemical.

SMILES strings stand for the structures.

Turning to `CCC(C)CCCCCCCCCCC(=O)O` (stereo not drawn) [12-MTA, 12-methyltetradecanoic acid], the “effect on scratch control (uninfected) eyes” value in data set [1] (200 μmol/10 μL topical, any time point) is listed as “does not affect the cornea”. For the same compound, the “blood vessel formation in the corneal stroma (histological examination)” value in data set [1] (14 days post-challenge, Group 3) was “reduced blood vessel formation”. The “vascularisation of the cornea compared to Groups 1 and 2 (photomicrographs)” value in data set [1] (Day 7) and in data set [1] (Day 14) was “reduced vascularisation” in each case. Moreover, the “Percentage of animals showing vascularisation in the infected eye” value is given as 40% in data set [1] (Day 7 post-challenge) and 50% in data set [1] (Day 14 post-challenge). Moreover, the “animals showing vascularisation in the infected eye (number/total)” value is listed as 4/10 in data set [1] (Day 7 post-challenge) and 5/10 in data set [1] (Day 14 post-challenge). Also, the “animals with mild ocular response” value in data set [1] (Group 3, Day 14 post-challenge) was determined as 60%; in data set [1] (Group 3, first examination), 50%. Moreover, the “animals with severe ocular response” value in data set [1] (Group 3, Day 14 post-challenge) was 20%; in data set [1] (Group 3, first examination) it was 10%. The “median score of severity of corneal damage (ocular response)” value is 1.65 (range 0-4) in data set [1] (Group 3, Day 14 post-challenge) and 2.1 (range 0.54) in data set [1] (Group 3, first examination (Day 7 implied, not given)). Further, the “animals with a persistent epithelial defect” value in data set [1] (Group 3, first examination) is 20%. In addition, the “corneal neovascularisation in mice (in words)” value in data set [1] is “inhibited corneal neovascularization”; in data set [1] (listed as 12-methlytetradecanoic acid), “inhibits corneal neovascularisation”. For the same compound, the aqueous solubility entry in “Aqueous solubility” was “poor”.

(Values after patent US20050143463A1, “Method of inhibiting angiogenesis” (THE QUEEN ELIZABETH HOSPITAL RESEARCH FOUNDATION INC., priority 2002, published 2005).)
